Reference: paper PMC10385825, “Synthesis of Benzocycloalkanone-Based Michael Acceptors and Biological Activities as Antimalarial and Antitrypanosomal Agents” (Molecules, 2023)
Several values for one entry are separate records, joined by “and”; a condition that tells them apart may be missing. Identical values can stand only once.

Assays:
P. berghei ANKA = assay: Four-day suppressive test in P. berghei-infected mice; format: in vivo, Plasmodium berghei (male Balb-C mice)
Method: Male Balb-C mice with a weight of 18–22 g were fed with a commercial diet ad libitum under standard procedures of animal care following the aforementioned method approved by the Ethics Committee of the Institute of Immunology. The animals were infected with a rodent malaria strain of Plasmodium berghei ANKA. A million infected erythrocytes, in phosphate-buffered saline solution (PBS, 10 mM, pH 7.4, 0.1 mL), were inoculated ip to infect the animal. The parasitemia was inspected by continuous microscopic examination of Giemsa-stained smears.
One million P. berghei, injected in the caudal vein i.v, were used to infect the mice (n = 6). After two hours of inoculation, the compounds that were active in vitro were dissolved in DMSO (0.1 M) and subsequently diluted with Saline-Tween 20 solution (2%), and administered ip for 4 days (20 mg kg^−^1). The parasite load was evaluated on the fourth day by examining Giemsa-stained smears. Chloroquine (20 mg kg^−^1) was used as the positive control and saline solution as the negative control. Non-treated mice were used as a baseline control for survival times. The survival days and percentage of parasitemia were used to express the results.

β-hematin formation = assay: Inhibition of β-hematin formation in vitro; format: biochemical; conditions: n = 3; read-out: IC50 (βHF) inhibition of β-hematin formation (± SEM)
Method: The assay was performed according to previously reported protocols. Hemin chloride (50 μL, 4 mM) in DMSO (5.2 mg mL^−1) was pipetted into 96-well microplates. Different concentrations (0.1–100 mM) of the compounds in DMSO were added in triplicate (50 μL) with a final concentration of 0.025 mM–25 mM/well. Water (50 μL) or DMSO (50 μL) were used as controls. […] Next, the plates were incubated at 37 °C for 48 h and subsequently centrifuged (4000 rpm × 15 min). The supernatant was washed twice with DMSO (200 μL) and resuspended in NaOH (200 μL, 0.2 N). The solubilized products were diluted (1:2) with NaOH (0.1 N), and the plates were read in an ELISA reader at 405 nm (Microplate Reader, BIORAD-550). The results are expressed as % IβHF.

VERO cells = assay: Cytotoxicity assay in VERO cells (MTT); format: cell-based; conditions: Chlorocebus sabaeus, 72 h
Method: The in vitro evaluations of compounds toxicity by MTT in VERO cells were performed as described in brief: VERO cells culture in DMEM, BSF 10%, were counted in suspension, seeded at 2 × 10^4 cells/well (100 μL) into a 96-well microplate, and incubated at 37 °C in a humidified 5% CO2 incubator for 24 h. After the incubation period, compounds were added in different concentrations: 50, 100, 150, 200, and 500 μM. The plate was incubated for 72 h in the same conditions. Then, 5 mg mL^−^1 of 3-(4,5-dimethylthiazol-2-yl)-2,5-diphenyl tetrazolium bromide (MTT) was added and incubated in darkness for 4 h. After this time, DMSO was added and the plate was read at 540 nm in a spectrophotometer Synergy HT (Biotek). The test was carried out in triplicate including untreated cells and reference drug controls.

[1] = tested on: T. cruzi epimastigotes (Y strain); assay: Trypanocidal activity, proliferation of T. cruzi epimastigotes (MTT); format: cell-based; conditions: Trypanosoma cruzi, 96 h, read-out: %ITcP: T. cruzi (epimastigotes) % inhibition proliferation
Method: The trypanocidal activity of compounds 7–39 was evaluated on the viability of T. cruzi epimastigotes (Y Strain). Parasites were cultivated in LIT medium supplemented with 10% FBS. The MTT method was used with minor modifications. Next, 2 × 10^6 parasites/mL were seeded in a 96-well plate, adding 50 μM of each derivative dissolved in DMSO (final concentration remained below 1%). The plate was incubated for 96 h at 29 °C. Then, 5 mg mL^−^1 of 3-(4,5-dimethylthiazol-2-yl)-2,5-diphenyl tetrazolium bromide (MTT) was added and incubated in darkness for 4 h. After this time, acidic isopropanol (4N) was added and the plate was read at 540 nm in a spectrophotometer Synergy HT (Biotek). Benznidazole (50 µM) was used as a reference drug.

`COc1ccc2c(c1OC)C/C(=C\c1ccc(SCc3ccccc3)cc1)C2=O` [compound 10, (E)-2-[4-(Benzylthio)benzylidene]-2,3-dihydro-4,5-dimethoxyinden-1-one] was tested, and the “Sd: Survival days (± SEM)” value (P. berghei ANKA; 20 mg kg−1 ip once daily, days 1–4 post-infection, n = 6) was 18.8 ± 4.91 days and 18.8 ± 4.9 days, the “%P: Percentage of parasitemia (± SEM)” value (P. berghei ANKA; fourth day post-infection, 20 mg kg−1 ip once daily for 4 days, n = 6) was 9.1 ± 2.44% and the Survival (P. berghei ANKA; surviving mice/total, 20 mg kg−1 ip for 4 days) was 0/6. For the same compound, the IC50 (β-hematin formation) was 33.1 ± 2.5 µM, the IC50 (VERO cells) was greater than 150 µM and the inhibition at 50 µM [1] was 33 ± 5.6%.
